Laboratory results published in ChEMBL document CHEMBL5634140, “Discovery of benzyloxy benzamide derivatives as potent neuroprotective agents against ischemic stroke” (Eur J Med Chem, 2023).
In brackets after ≈: the same amount, converted by molar mass. Activity calls are given as the source filed them. The rule behind the calls is not given here.

Columns and labels:
SH-SY5Y [1] = test: Neuroprotective activity against glutamate induced human SH-SY5Y cells at 0.1 uM preincubated for 30 mins followed by glutamate addition and measured after 24 hrs by LDH based assay; format: functional; settings: time 24.5 hrs
SH-SY5Y [2] = test: Neuroprotective activity against glutamate induced human SH-SY5Y cells at 10 uM preincubated for 30 mins followed by glutamate addition and measured after 24 hrs by LDH based assay; format: functional; settings: time 24.5 hrs
SH-SY5Y [3] = test: Cytotoxicity against human SH-SY5Y cells at 25 uM incubated for 72 hrs by CCK8 assay; format: toxicity, cell-based
SH-SY5Y [4] = test: Neuroprotective activity against glutamate induced human SH-SY5Y cells at 1 uM preincubated for 30 mins followed by glutamate addition and measured after 24 hrs by LDH based assay; format: functional; settings: time 24.5 hrs
Rattus norvegicus [5] = test: Neuroprotective activity against MCAO-reperfusion induced Sprague-Dawley rat assessed as reduction in infarct volume at 6 mg/kg, ip by TTC staining based analysis (reference value: 40.02 +/- 2.61 %); format: functional; design: scale not given: the % may be the effect or the level left
Neuron [6] = test: Inhibition of PSD95 to nNOS protein-protein interaction in glutamate induced rat neurons at 2 to 20 uM by co-immunoprecipitation method; format: cell-based; settings: dose 2-20 µM
[7] = Apparent clearance in Sprague-Dawley rat at 2 mg/kg, iv measured upto 24 hrs by LC-MS/MS analysis; format: ADME, organism-based; settings: in vivo, read-out: CL(app)
[8] = Half life in Sprague-Dawley rat at 2 mg/kg, iv measured upto 24 hrs by LC-MS/MS analysis; format: ADME, organism-based; settings: in vivo
[9] = Cmax in Sprague-Dawley rat at 2 mg/kg, iv measured upto 24 hrs by LC-MS/MS analysis; format: ADME, organism-based; settings: in vivo
[10] = Ratio of drug concentration in Sprague-Dawley rat brain to plasma at 10 mg/kg, iv measured after 0.5 hrs by LC-MS/MS analysis; format: ADME, organism-based
[11] = Drug concentration in Sprague-Dawley rat plasma at 10 mg/kg, iv after 0.5 hrs by LC-MS/MS analysis; format: ADME, organism-based
Rattus norvegicus [12] = test: Neuroprotective activity against MCAO-reperfusion induced Sprague-Dawley rat assessed as reduction in infarct volume at 10 mg/kg, ip by TTC staining based analysis (reference value: 40.02 +/- 2.61 %); format: functional; design: scale not given: the % may be the effect or the level left
[13] = AUC(0 to t) in Sprague-Dawley rat at 10 mg/kg, po measured upto 24 hrs by LC-MS/MS analysis; format: ADME, organism-based; settings: in vivo
[14] = Apparent volume of distribution in Sprague-Dawley rat at 2 mg/kg, iv measured upto 24 hrs by LC-MS/MS analysis; format: ADME, organism-based; settings: in vivo, read-out: Vz
Rattus norvegicus [15] = test: Neuroprotective activity against MCAO-reperfusion induced Sprague-Dawley rat assessed as reduction in neurological deficit score at 10 mg/kg, ip by TTC staining based analysis (reference value: 2.93 +/- 0.12); format: functional
[16] = Drug concentration in Sprague-Dawley rat brain at 10 mg/kg, iv after 0.5 hrs by LC-MS/MS analysis; format: ADME, organism-based; settings: read-out: Ct
[17] = Drug concentration in Sprague-Dawley rat brain at 10 mg/kg, iv after 0.25 hrs by LC-MS/MS analysis; format: ADME, organism-based; settings: read-out: Ct
[18] = Drug concentration in Sprague-Dawley rat plasma at 10 mg/kg, iv after 0.25 hrs by LC-MS/MS analysis; format: ADME, organism-based
[19] = Solubility of the compound at pH 7.4; format: physicochemical; settings: buffer
[20] = Tmax in Sprague-Dawley rat at 10 mg/kg, po measured upto 24 hrs by LC-MS/MS analysis; format: ADME, organism-based; settings: in vivo
[21] = Ratio of drug concentration in Sprague-Dawley rat brain to plasma at 10 mg/kg, iv measured after 1 hr by LC-MS/MS analysis; format: ADME, organism-based
[22] = AUC(0 to t) in Sprague-Dawley rat at 2 mg/kg, iv measured upto 24 hrs by LC-MS/MS analysis; format: ADME, organism-based; settings: in vivo
[23] = Mean residence time in Sprague-Dawley rat at 10 mg/kg, po measured upto 24 hrs by LC-MS/MS analysis; format: ADME, organism-based; settings: in vivo
[24] = Ratio of drug concentration in Sprague-Dawley rat brain to plasma at 10 mg/kg, iv measured after 0.25 hrs by LC-MS/MS analysis; format: ADME, organism-based
[25] = Drug concentration in Sprague-Dawley rat brain at 10 mg/kg, iv after 1 hr by LC-MS/MS analysis; format: ADME, organism-based; settings: read-out: Ct
[26] = AUC(0 to infinity) in Sprague-Dawley rat at 10 mg/kg, po measured upto 24 hrs by LC-MS/MS analysis; format: ADME, organism-based; settings: Sprague-Dawley, in vivo
[27] = AUC(0 to infinity) in Sprague-Dawley rat at 2 mg/kg, iv measured upto 24 hrs by LC-MS/MS analysis; format: ADME, organism-based; settings: in vivo
Neuron [28] = test: Neuroprotective activity against glutamate-induced excitotoxicity in rat primary neurons at 0.1 uM; format: functional, cell-based
[29] = Drug concentration in Sprague-Dawley rat plasma at 10 mg/kg, iv after 1 hr by LC-MS/MS analysis; format: ADME, organism-based
[30] = Mean residence time in Sprague-Dawley rat at 2 mg/kg, iv measured upto 24 hrs by LC-MS/MS analysis; format: ADME, organism-based; settings: in vivo
[31] = Half life in Sprague-Dawley rat at 10 mg/kg, po measured upto 24 hrs by LC-MS/MS analysis; format: ADME, organism-based; settings: in vivo
[32] = Cmax in Sprague-Dawley rat at 10 mg/kg, po measured upto 24 hrs by LC-MS/MS analysis; format: ADME, organism-based; settings: in vivo
[33] = Oral bioavailability in Sprague-Dawley rat at 10 mg/kg measured upto 24 hrs by LC-MS/MS analysis; format: ADME, organism-based; settings: Sprague-Dawley, in vivo

**Q.** Which Activity (SH-SY5Y [1]) does the source give for `Nc1cc(Cl)cc(Cl)c1OCc1ccc(NS(=O)(=O)C(F)(F)F)cc1` here?
**A.** 10.69%

**Q.** And the Activity (SH-SY5Y [2])?
**A.** 60.31%

**Q.** And the Activity (SH-SY5Y [3])?
**A.** 2.21%

**Q.** And the Activity (SH-SY5Y [4])?
**A.** 36.13%

**Q.** What does the source list for `Nc1cc(Cl)cc(Cl)c1OCc1ccc(C(=O)N[C@H]2CCCC[C@@H]2N)cc1`?
**A.** Activity (SH-SY5Y [1]): 10.1%; Activity (SH-SY5Y [2]): 65.52%; Activity (SH-SY5Y [3]): 2.42%; Activity (SH-SY5Y [4]): 39.66%

**Q.** For `NCCNC(=O)c1ccc(COc2c(N)cc(Cl)cc2Cl)cc1`, which Activity (SH-SY5Y [1]) is on record?
**A.** 12.87%

**Q.** And the Activity (SH-SY5Y [2])?
**A.** 67.8%

**Q.** And the Activity (SH-SY5Y [3])?
**A.** < 0%

**Q.** What about the Activity (SH-SY5Y [4]) of the same molecule?
**A.** 41.14%

**Q.** Which Activity (Rattus norvegicus [5]) does the source give for `CC1=NN(c2ccccc2)C(=O)C1` [EDARAVONE] here?
**A.** 27.06%

**Q.** With `Nc1cc(Cl)cc(Cl)c1OCc1ccc(NS(=O)(=O)c2ccccc2)cc1` as the molecule, how does the Activity (SH-SY5Y [1]) read?
**A.** 15.64%

**Q.** What about the Activity (SH-SY5Y [2]) of the same molecule?
**A.** 64.69%

**Q.** And the Activity (SH-SY5Y [3])?
**A.** 1.96%

**Q.** And the Activity (SH-SY5Y [4])?
**A.** 38.63%

**Q.** Which results are given for `C[C@@H](N)CNC(=O)c1ccc(COc2c(N)cc(Cl)cc2Cl)cc1`?
**A.** Activity (SH-SY5Y [1]): 13.55%; Activity (SH-SY5Y [2]): 63.79%; Activity (SH-SY5Y [3]): 3.13%; Activity (SH-SY5Y [4]): 41.38%

**Q.** For `COCCNC(=O)c1ccc(COc2c(N)cc(Cl)cc2Cl)cc1`, which Activity (SH-SY5Y [1]) is on record?
**A.** 11.71%

**Q.** What about the Activity (SH-SY5Y [2]) of the same molecule?
**A.** 65.14%

**Q.** What about the Activity (SH-SY5Y [3]) of the same molecule?
**A.** 1.33%

**Q.** And the Activity (SH-SY5Y [4])?
**A.** 40.46%

**Q.** Which results are given for `NCC(=O)Nc1cc(Cl)cc(Cl)c1OCc1ccc(C(=O)Nc2ccccc2N)cc1`?
**A.** inhibition (Neuron [6]): Active; clearance [7]: 26.4 mL/min/kg; half-life [8]: 4.08 h; Cmax [9]: 2510 ng/mL; Kp at 0.5 h [10]: 0.0082; concentration at 0.5 h [11]: 935 ng/mL; Activity (Rattus norvegicus [12]): 28.31%; AUC(0-t) at 24 h [13]: 1240 ng·h/mL; Vd [14]: 8.81 L/kg; Activity (Rattus norvegicus [15]): 2.27; concentration at 0.5 h [16]: 7.64 ng/g; concentration at 0.25 h [17]: 10.6 ng/g; concentration at 0.25 h [18]: 1890 ng/mL; solubility [19]: 23 µg/mL (≈ 50.1 µM); Tmax [20]: 0.83 h; Kp at 1 h [21]: 0.0305; AUC(0-t) at 24 h [22]: 1270 ng·h/mL; MRT [23]: 3.26 h; Kp at 0.25 h [24]: 0.0056; concentration at 1 h [25]: 10 ng/g; AUC(0-inf) [26]: 1260 ng·h/mL; AUC(0-inf) [27]: 1280 ng·h/mL; Activity (Neuron [28]): Active; concentration at 1 h [29]: 329 ng/mL; MRT [30]: 1.46 h; half-life [31]: 4.26 h; Cmax [32]: 233 ng/mL; bioavailability [33]: 19.6%

**Q.** Which results are given for `CN(CCN)C(=O)c1ccc(COc2c(N)cc(Cl)cc2Cl)cc1`?
**A.** Activity (SH-SY5Y [1]): 11.33%; Activity (SH-SY5Y [2]): 44.82%; Activity (SH-SY5Y [3]): 2.21%; Activity (SH-SY5Y [4]): 32.51%
